From PubChem BioAssay AID1996
Values after ≈ are worked out from the molar mass of the structure shown.

Settings: buffer; pH 7.4; 200.0 µM

Structure (SMILES) | solubility kinetic [µg/mL]
CC(C)N(Cc1ccccc1)C(=S)Nc1ccc(F)cc1 | 45.1 (≈ 149 µM)
CC1CCCC(NC(=O)COC(=O)c2ccc3c(c2)OCCO3)C1C (stereo not given) | 5.3 (≈ 15.3 µM)
OC(COc1ccccc1)CN1CCCCCC1 (stereo not given) | > 37.4
CC1CN(CC(O)COC2CCC(C(C)(C)C)CC2)CC(C)O1.Cl (stereo not given) | 48.8
O=C1c2ccccc2C(=O)N1c1cccc2ccccc12 | 13.7 (≈ 50.1 µM)
Cc1ccc(S(=O)(=O)N2CCCCC2)c2nsnc12 | 31.9 (≈ 107 µM)
O=C(O)c1ccc(Nc2ccc([N+](=O)[O-])c3nonc23)cc1 | > 45
Cc1c(Cl)cn2c(=O)cc(CN3CCN(c4ccc(F)cc4)CC3)nc2c1Cl | 5 (≈ 11.9 µM)
CSc1nsc(SCC(=O)NCc2ccccc2)n1 | 46.7 (≈ 150 µM)
Cc1nc2ccccn2c1-c1csc(Nc2ccc(C(=O)O)cc2)n1 | 2.5 (≈ 7.13 µM)
Cc1cccc(NS(=O)(=O)c2cc(Cl)ccc2Cl)n1 | > 47.6
CC1(C)CCc2cc(-c3ccnc(=S)[nH]3)ccc2O1 | 8.5 (≈ 31.2 µM)
c1ccc2c3c([nH]c2c1)CNCC3 | > 25.8
CSc1nc2nc(-c3cccs3)cc(C(F)(F)F)c2c(=O)[nH]1 | 2.5 (≈ 7.28 µM)
CN1CCN(C(=O)/C=C/c2ccc(Cl)c(Cl)c2)CC1 | 41 (≈ 137 µM)
O=C(/C=C\c1ccco1)NC(=S)Nc1ccccc1O | 42.6 (≈ 148 µM)
Cc1ccc(CNCCc2ccc(F)cc2)s1 | 26.7 (≈ 107 µM)
COc1ccc(/C=C/c2ccc3cccc(O)c3n2)cc1Br | < 0.8
Cc1ccc(NC(=O)COC(=O)C2(CC(=O)NC(C)(C)C)CCCC2)cc1C | 2.5 (≈ 6.43 µM)
COc1ccc(S(=O)(=O)N2CCSC2C)cc1C (stereo not given) | 34.9 (≈ 121 µM)
CC(C)c1ccc(CNC(=O)CCc2ccccc2)cc1 | 31.2 (≈ 111 µM)
Cc1ccc(NC(=O)COC(=O)c2cccnc2Cl)cc1S(=O)(=O)N1CCOCC1 | 66 (≈ 145 µM)
O=C(OCC(=O)N1CCCCC1)c1cc(S(=O)(=O)N2CCOCC2)c(Cl)cc1Cl | 67.7 (≈ 145 µM)
CN(CC(=O)NCc1ccccc1Cl)CC(=O)Nc1cccc(F)c1 | > 54.6

Structure (SMILES) | solubility kinetic [µg/mL]
Cc1ccc(N(C(=O)Nc2ccccc2)C2=NCCC2)cc1 | 4.5 (≈ 15.3 µM)
Cc1cccnc1NC(=O)Nc1ccccc1 | 4.1 (≈ 18 µM)
COc1ccc(CNC(=O)c2ccc[nH]2)cc1 | > 34.5
CC1CCCC(C)N1C(=O)COC(=O)c1nn(C)c(=O)c2ccccc12 (stereo not given) | > 53.6
CCOC(=O)CSc1nc2cccnc2n1C | > 37.7
CC1Cc2cc(/C=C3/SC(=S)NC3=O)ccc2O1 (stereo not given) | 9.3 (≈ 33.5 µM)
CCCOc1ccc(C2=CSC3=NCCN23)cc1Cl | 40.4 (≈ 137 µM)
CC(C)c1ccc2oc(=O)cc(CN3CCOCC3)c2c1 | 41.9 (≈ 146 µM)
COc1ccccc1NS(=O)(=O)c1ccc2[nH]c(=S)oc2c1 | > 50.5
CN1CC(C(=O)c2ccc(F)cc2)C(c2c(F)cccc2Cl)C1 (stereo not given) | 40.9 (≈ 122 µM)
Cn1c(=O)n(CC(N)=O)c(=O)c2c1nc(Br)n2Cc1ccccc1 | > 58.8
CC1=C(C(=O)Nc2cccc(C(=O)NC(C)C)c2)SCCO1 | 47.9 (≈ 149 µM)
COc1cc2c(cc1OC)C(c1c(Cl)cccc1Cl)NC(=O)C2 (stereo not given) | > 52.8
CC1CCN(CCc2nc3ccccc3[nH]2)CC1 | 33.7 (≈ 138 µM)
N#C/C(=C\c1ccncc1)c1ccc(NC(N)=O)cc1 | 13.8 (≈ 52.2 µM)
Cc1ccc(S(=O)(=O)NC2=NCN(C)CN2)cc1[N+](=O)[O-] | > 47
O=C1/C(=C\c2ccc(O)cc2)SC(=S)N1Cc1ccccc1 | < 0.7
O=C(NC1CC1)c1nc(Cn2ccc([N+](=O)[O-])n2)no1 | > 41.7
O=C(c1ccc(Cl)cc1)N1CCN(c2cccc3[nH]ccc23)CC1 | 35.6 (≈ 105 µM)
CCCS(=O)(=O)Nc1cccc(-c2cn3c(n2)SCC3)c1 | > 48.5
N#C/C(=C\c1ccc(F)cc1F)S(=O)(=O)c1ccccn1 | 42.4 (≈ 138 µM)
O=C(Nc1cccc(C(=O)Nc2ccccc2C(=O)O)c1)c1cccc(Cl)c1 | > 59.2
O=C(c1ccc(CNS(=O)(=O)c2cccc(Cl)c2)cc1)N1CCCCC1 | 2.6 (≈ 6.62 µM)
CC(=O)c1cccc(Nc2cc(C)nc3ccc(C)cc23)c1.Cl | 46.9

Results, then the compound that gave them:

solubility kinetic [µg/mL] | Structure (SMILES)
> 46 | CSc1ccccc1NC(=O)CSc1cccc[n+]1[O-]
36.4 (≈ 100 µM) | CC(C)c1ccccc1OCCNC(=O)c1cncc(Br)c1
< 0.6 | CCOC(=O)c1sc(NC(=O)OC)c(C(=O)OC)c1C
> 45.4 | CCOC(=O)CSc1nc2ccccc2n2c(C)nnc12
33.3 (≈ 132 µM) | O=C(/C=C/c1ccc(Cl)cc1)N1CCOCC1
> 46.7 | Cc1ccc(S(=O)(=O)CC(=O)N2CC(C)OC(C)C2)cc1 (stereo not given)
2.1 (≈ 6.08 µM) | Cc1ccnc(NC(=O)c2cccc(NC(=O)c3ccccc3C)c2)c1
> 44.9 | COc1ccccc1CCC(=O)NNC(=O)c1ccncc1
> 68.3 | COc1ccc(S(=O)(=O)N2CCN(C(=O)c3cc(C)nc4ccccc34)CC2)cc1OC
> 36.9 | O=c1[nH]c(NCCO)nnc1Cc1ccccc1
41.4 (≈ 132 µM) | O=C(NCCN1CCOCC1)c1ccc(Cl)c([N+](=O)[O-])c1
4.1 (≈ 11.9 µM) | CN=C1S/C(=C/c2cn(CC(=O)OC)c3ccccc23)C(=O)N1C
> 47 | CC(C)(C)NC(=O)/C(=C/c1cccnc1)NC(=O)c1ccco1
8.8 (≈ 27.5 µM) | CC(C)(C)NS(=O)(=O)c1ccc2[nH]c3c(c2c1)CCCCC3
42.3 (≈ 132 µM) | O=[N+]([O-])c1cc(NCCO)c(N2CCCCCC2)c2nonc12
6.2 (≈ 23.5 µM) | Cc1cc(C(=O)Nc2ccc([N+](=O)[O-])cn2)cs1
> 43.8 | Cc1cc[n+](CCc2ccccc2)cc1C.[Br-]
44.9 (≈ 150 µM) | O=C(O)c1ccc(Nc2ccc3nonc3c2[N+](=O)[O-])cc1
3.4 (≈ 10.8 µM) | COC(=O)c1ccc(CSc2cc(C)c3ccccc3n2)o1

solubility kinetic [µg/mL] | Structure (SMILES)
> 64.7 | CC(=O)NC(CC(=O)Nc1ccc(S(=O)(=O)N2CCOCC2)cc1)c1ccccc1 (stereo not given)
> 23.9 | Cn1cc(C=O)c2ccccc21
> 57.7 | O=C(Nc1cccc(O)c1)c1cccc(S(=O)(=O)Nc2cccc(O)c2)c1
> 53.3 | CCc1ccccc1NC(=O)c1cc([N+](=O)[O-])ccc1N1CCOCC1
> 52.4 | CCc1nnc(NC(=O)CSc2nnc3nc(C)cc(C)n23)s1
6.4 (≈ 15.7 µM) | COc1cc(OC)cc(C(=O)Nc2ccc(C(=O)Nc3ccccc3OC)cc2)c1
47 (≈ 139 µM) | COc1ccc(Cl)cc1S(=O)(=O)Nc1noc2ccccc12
> 43.6 | Cc1nc(NC(=O)c2ccncc2)sc1C(=O)N(C)C
2.8 (≈ 7.94 µM) | O=C(CCCCC(=O)NCCc1ccccc1)NCCc1ccccc1
36.5 (≈ 118 µM) | CN(C(=O)CCN1C(=O)c2ccccc2C1=O)c1ccccc1
9.8 (≈ 33.2 µM) | COc1ccccc1CNC(=O)c1oc2ccccc2c1C
43.6 (≈ 148 µM) | O=C(O)C1Nc2ccc(Br)cc2C2C=CCC12 (stereo not given)
22 (≈ 77.1 µM) | NC(=O)c1c(/N=C/c2cccnc2)sc2c1CCCC2
> 46.1 | CCN(CC)C(=O)c1sc(NC(=O)C(C)C)c(C#N)c1C
4.2 (≈ 15.3 µM) | Cc1ccccc1OCC(=O)NC1CCCCCCC1
33.8 (≈ 109 µM) | Cc1csc(NC(=O)CSc2ccc([N+](=O)[O-])cn2)n1
> 58.9 | CC1CN(S(=O)(=O)c2ccc(C(=O)Nc3ccccc3F)cc2)CC(C)O1 (stereo not given)
> 44 | Fc1cccc(Cc2noc(CN3CCSCC3)n2)c1
